Data: patent publication US8247211B2, “Glycopeptide antibiotics” (American Cyanamid Company, priority 2001, dated 2012)

Tests used:
Experiment in all cases: In vitro antibacterial evaluation: minimum inhibitory concentration (MIC), broth dilution method
Assay type in all cases: cell-based
Settings in all cases: 18 hours at 35° C.
Streptococcus sp. = test system: Streptococcus sp.
Outline: (§1)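 NCCLS M7-A2 broth dilution; Muller-Hinton II […]; 5×10^5 CFU/mL; 64-0.06 μg/mL. MIC = lowest concentration with no growth.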

Enterococcus sp. = test system: Enterococcus sp.
Outline: as §1

Staphylococcus sp. = test system: Staphylococcus sp.
Outline: as §1

Escherichia coli = test system: Escherichia coli
Outline: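 Inoculum: 5×10^5 CFU/mL. Range: 64-0.06 μg/mL. Medium: Muller-Hinton II […]; NCCLS M7-A2 broth dilution. Endpoint: lowest concentration inhibiting growth. Strains include methicillin-, penicillin- and/or vancomycin-resistant clinical isolates.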

## α-O-[(Heptylamino)carbonyl]-cyclo(glycyl-β-methylphenylalanyl-O-(4-O-hexopyranosylhexopyranosyl)tyrosyl-3-(2-iminoimidazolidin-4-yl)seryl-3-(3-hexopyranosyl-2-iminoimidazolidin-4-yl)serylseryl] [Example 253]
Streptococcus sp.; Streptococcus agalactiae (GC 4564)
  MIC Streptococcus agalactiae (GC 4564): 32 µg/mL
Streptococcus sp.; Streptococcus pneumoniae (ATCC 6301)
  MIC Streptococcus pneumoniae (ATCC 6301): 16 µg/mL
Streptococcus sp.; Streptococcus pneumoniae (GC 1894)
  MIC Streptococcus pneumoniae (GC 1894): 8 µg/mL
Streptococcus sp.; Streptococcus pneumoniae (GC 4565)
  MIC Streptococcus pneumoniae (GC 4565): 16 µg/mL
Streptococcus sp.; Streptococcus pyogenes (GC 4563)
  MIC Streptococcus pyogenes (GC 4563): 32 µg/mL
Streptococcus sp.; broth dilution, strain ATCC 6301
  MIC Streptococcus pneumoniae (ATCC 6301): 16 µg/mL
Streptococcus sp.; broth dilution, strain GC 1894
  MIC Streptococcus pneumoniae (GC 1894): 8 µg/mL
Streptococcus sp.; broth dilution, strain GC 4563
  MIC Streptococcus pyogenes (GC 4563): 32 µg/mL
Streptococcus sp.; broth dilution, strain GC 4564
  MIC Streptococcus agalactiae (GC 4564): 32 µg/mL
Streptococcus sp.; broth dilution, strain GC 4565
  MIC Streptococcus pneumoniae (GC 4565): 16 µg/mL
Enterococcus sp.; Enterococcus avium (GC 4558)
  MIC Enterococcus avium (GC 4558): 64 µg/mL
Enterococcus sp.; Enterococcus faecalis (ATCC 29212)
  MIC Enterococcus faecalis (ATCC 29212): >64 µg/mL
Enterococcus sp.; Enterococcus faecalis (GC 2242)
  MIC Enterococcus faecalis (GC 2242): >64 µg/mL
Enterococcus sp.; Enterococcus faecalis (GC 2691)
  MIC Enterococcus faecalis (GC 2691): >64 µg/mL
Enterococcus sp.; Enterococcus faecalis (GC 3059)
  MIC Enterococcus faecalis (GC 3059): >64 µg/mL
Enterococcus sp.; Enterococcus faecalis (GC 4552)
  MIC Enterococcus faecalis (GC 4552): >64 µg/mL
Enterococcus sp.; Enterococcus faecalis (GC 4553)
  MIC Enterococcus faecalis (GC 4553): >64 µg/mL
Enterococcus sp.; Enterococcus faecalis (GC 4554)
  MIC Enterococcus faecalis (GC 4554): >64 µg/mL
Enterococcus sp.; Enterococcus faecalis (GC 6189)
  MIC Enterococcus faecalis (GC 6189): >64 µg/mL
Enterococcus sp.; Enterococcus faecium (GC 2243)
  MIC Enterococcus faecium (GC 2243): >64 µg/mL
Enterococcus sp.; Enterococcus faecium (GC 4556)
  MIC Enterococcus faecium (GC 4556): >64 µg/mL
Enterococcus sp.; Enterococcus faecium (GC 4557)
  MIC Enterococcus faecium (GC 4557): 32 µg/mL
Enterococcus sp.; broth dilution, strain ATCC 29212
  MIC Enterococcus faecalis (ATCC 29212): >64 µg/mL
Enterococcus sp.; broth dilution, strain GC 2242
  MIC Enterococcus faecalis (GC 2242): >64 µg/mL
Enterococcus sp.; broth dilution, strain GC 2243
  MIC Enterococcus faecium (GC 2243): >64 µg/mL
Enterococcus sp.; broth dilution, strain GC 2691
  MIC Enterococcus faecalis (GC 2691): >64 µg/mL
Enterococcus sp.; broth dilution, strain GC 3059
  MIC Enterococcus faecalis (GC 3059): >64 µg/mL
Enterococcus sp.; broth dilution, strain GC 4552
  MIC Enterococcus faecalis (GC 4552): >64 µg/mL
Enterococcus sp.; broth dilution, strain GC 4553
  MIC Enterococcus faecalis (GC 4553): >64 µg/mL
Enterococcus sp.; broth dilution, strain GC 4554
  MIC Enterococcus faecalis (GC 4554): >64 µg/mL
Enterococcus sp.; broth dilution, strain GC 4556
  MIC Enterococcus faecium (GC 4556): >64 µg/mL
Enterococcus sp.; broth dilution, strain GC 4557
  MIC Enterococcus faecium (GC 4557): 32 µg/mL
Enterococcus sp.; broth dilution, strain GC 4558
  MIC Enterococcus avium (GC 4558): 64 µg/mL
Enterococcus sp.; broth dilution, strain GC 6189
  MIC Enterococcus faecalis (GC 6189): >64 µg/mL
Staphylococcus sp.; Coagulase Negative Staphylococcus (GC 4547)
  MIC Coagulase Negative Staphylococcus (GC 4547): 64 µg/mL
Staphylococcus sp.; Coagulase Negative Staphylococcus (GC 4548)
  MIC Coagulase Negative Staphylococcus (GC 4548): 64 µg/mL
Staphylococcus sp.; Coagulase Negative Staphylococcus (GC 4549)
  MIC Coagulase Negative Staphylococcus (GC 4549): 64 µg/mL
Staphylococcus sp.; Coagulase Negative Staphylococcus (GC 4551)
  MIC Coagulase Negative Staphylococcus (GC 4551): >64 µg/mL
Staphylococcus sp.; Coagulase Negative Staphylococcus (GC 6257)
  MIC Coagulase Negative Staphylococcus (GC 6257): 32 µg/mL
Staphylococcus sp.; Staphylococcus aureus (ATCC 29213)
  MIC Staphylococcus aureus (ATCC 29213): >64 µg/mL
Staphylococcus sp.; Staphylococcus aureus (GC 1131)
  MIC Staphylococcus aureus (GC 1131): >64 µg/mL
Staphylococcus sp.; Staphylococcus aureus (GC 3051)
  MIC Staphylococcus aureus (GC 3051): >64 µg/mL
Staphylococcus sp.; Staphylococcus aureus (GC 3053)
  MIC Staphylococcus aureus (GC 3053): >64 µg/mL
Staphylococcus sp.; Staphylococcus aureus (GC 4541)
  MIC Staphylococcus aureus (GC 4541): 64 µg/mL
Staphylococcus sp.; Staphylococcus aureus (GC 4542)
  MIC Staphylococcus aureus (GC 4542): >64 µg/mL
Staphylococcus sp.; Staphylococcus aureus (GC 4544)
  MIC Staphylococcus aureus (GC 4544): >64 µg/mL
Staphylococcus sp.; Staphylococcus aureus (GC 4545)
  MIC Staphylococcus aureus (GC 4545): 64 µg/mL
Staphylococcus sp.; Staphylococcus aureus-SMITH (GC 4543)
  MIC Staphylococcus aureus-SMITH (GC 4543): 64 µg/mL
Staphylococcus sp.; Staphylococcus haemolyticus (GC 4546)
  MIC Staphylococcus haemolyticus (GC 4546): 64 µg/mL
Staphylococcus sp.; broth dilution, strain ATCC 29213
  MIC Staphylococcus aureus (ATCC 29213): >64 µg/mL
Staphylococcus sp.; broth dilution, strain GC 1131
  MIC Staphylococcus aureus (GC 1131): >64 µg/mL
Staphylococcus sp.; broth dilution, strain GC 3051
  MIC Staphylococcus aureus (GC 3051): >64 µg/mL
Staphylococcus sp.; broth dilution, strain GC 3053
  MIC Staphylococcus aureus (GC 3053): >64 µg/mL
Staphylococcus sp.; broth dilution, strain GC 4541
  MIC Staphylococcus aureus (GC 4541): 64 µg/mL
Staphylococcus sp.; broth dilution, strain GC 4542
  MIC Staphylococcus aureus (GC 4542): >64 µg/mL
Staphylococcus sp.; broth dilution, strain GC 4543
  MIC Staphylococcus aureus-SMITH (GC 4543): 64 µg/mL
Staphylococcus sp.; broth dilution, strain GC 4544
  MIC Staphylococcus aureus (GC 4544): >64 µg/mL
Staphylococcus sp.; broth dilution, strain GC 4545
  MIC Staphylococcus aureus (GC 4545): 64 µg/mL
Staphylococcus sp.; broth dilution, strain GC 4546
  MIC Staphylococcus haemolyticus (GC 4546): 64 µg/mL
Staphylococcus sp.; broth dilution, strain GC 4547
  MIC Coagulase Negative Staphylococcus (GC 4547): 64 µg/mL
Staphylococcus sp.; broth dilution, strain GC 4548
  MIC Coagulase Negative Staphylococcus (GC 4548): 64 µg/mL
Staphylococcus sp.; broth dilution, strain GC 4549
  MIC Coagulase Negative Staphylococcus (GC 4549): 64 µg/mL
Staphylococcus sp.; broth dilution, strain GC 4551
  MIC Coagulase Negative Staphylococcus (GC 4551): >64 µg/mL
Staphylococcus sp.; broth dilution, strain GC 6257
  MIC Coagulase Negative Staphylococcus (GC 6257): 32 µg/mL
Escherichia coli; Escherichia coli (ATCC 25922)
  MIC Escherichia coli (ATCC 25922): >64 µg/mL
Escherichia coli; Escherichia coli (GC 4559)
  MIC Escherichia coli (GC 4559): >64 µg/mL
Escherichia coli; Escherichia coli (GC 4560)
  MIC Escherichia coli (GC 4560): 2 µg/mL
